Laboratory results as given in patent US20130210852A1, “METHODS FOR TREATING INFECTION” (priority 2010, published 2013).
Converted amounts (≈) assume the structure as drawn. “Also recorded” adds a separate entry of the source. Like-named read-outs stand apart in the source and are kept apart here.

Assays:
[1] = system: MMP-9 in EAEC isolates; assay: Matrix metalloproteinase-9 detection by gelatin zymography, EAEC; format: cell-based, Escherichia coli
Description: Matrix Metalloproteinase-9 Detection Expression of matrix metalloproteinase-9 (MMP-9) was analyzed using gelatin zymography in all viable EAEC and S. sonnei isolates growing on MacConkey agar. Isolates were suspended in 1 mL of 0.1 M phosphate buffered saline (pH 7.2) and centrifuged at 1000 g for 10 minutes at 4° C. The supernatant was subjected to gelatin zymography to detect MMP-9 activity using a modified Heussen and Dowdle protocol (9). In summary, the supernatant was diluted 1:2 in a sample buffer (125 mM Tris-HCl, pH 6.8, 20% glycerol, 4% sodium dodecyl sulfate, 0.02% bromphenol blue), and 20 μL was loaded on to a 10% SDS-PAGE gel containing 1 mg/mL gelatin. Prestained standard proteins were used as molecular weight markers. After electrophoresis, gels were rinsed with incubation buffer (2.5% triton X-100, 50 mM Tris-HCl, pH 7.4, 0.02% Brij 35, 10 mM CaCl2, 2 μM ZnCl2) for 1 hour at room temperature to remove SDS. Gels were then incubated overnight at 37° C. and subsequently stained with Coomassie brilliant blue R-250 (Thermo Fisher Scientific, Inc, Rockford, Ill.). […] Matrix metalloproteinase-9 was identified among all gelatinolytic proteins by size.

[2] = system: EAEC strain O42 adherence to HEp-2 cells; assay: HEp-2 cell attachment assay (microscopy after Wright-Giemsa staining); format: cell-based, human; details: HEp-2 cells incubated 24 h with antibiotic, washed, then EAEC 3 h
[3] = system: EAEC strain O42 adherence to HEp-2 cells; format: cell-based, human
[4] = system: EAEC strain O42 adherence to HeLa cells; format: cell-based, human; details: 24 h pretreatment with 64 mg (FIG. 2: 64 μg/ml), EAEC 3 h
[5] = system: HCT-8 cells infected with rifaximin-exposed EAEC strains; assay: HCT-8 cell culture assay for interleukin-8 (IL-8) release; format: cell-based, human
Description: The human intestinal adenocarcinoma cell line, HCT-8, was used to study inflammatory modulators as previously published (Huang, 2004 #15). Monolayers of HCT-8 cells (ATCC CCL-244; American Type Culture Collection, Rockville, Md.) were grown in 24-well culture plates (Corning Costar, Corning, N.Y.) in an RPMI 1640 medium (Sigma-Aldrich Co, St Louis, Mo.) supplemented with 100 U/mL of penicillin, 100 μg/mL of streptomycin, and 0.25 μg/mL of amphotericin B. They were maintained in a medium supplemented with 10% fetal bovine serum (HyClone, Logan, Utah) and grown until approximately 4×10^5 cells/well confluence.
HCT-8 cells were infected with EAEC strains recovered from MacConkey agar in triplicate at a 100:1 ratio in an antibiotic- and serum-free RPMI 1640 medium. Cells were incubated for 3 hours in a humidified chamber at 37° C. in an atmosphere containing 5% CO2, after which supernatants were collected. The supernatant concentration of IL-8 in each well was determined by using a commercially available enzyme-linked immunosorbent assay kit for human IL-8 (R&D Systems, Minneapolis, Minn.). All samples were tested twice, and the average value was reported.

[6] = system: C difficile; assay: Susceptibility testing of C difficile isolates (rifaximin agar dilution, rifampin E strips)
[7] = system: EAEC isolates; assay: Isolate viability after rifaximin exposure, EAEC
[8] = system: S sonnei isolate; assay: Isolate viability after rifaximin exposure, S sonnei; format: cell-based, Shigella sonnei
[9] = system: S. sonnei on HeLa cells; assay: S. sonnei adherence and internalization in HeLa cells; format: cell-based, human; details: HeLa cells pretreated 24 h
[10] = system: EAEC strain O42 adherence to HCT-8 cells; format: cell-based, human; details: 24 h pretreatment with 64 mg (FIG. 2: 64 μg/ml), EAEC 3 h
[11] = system: ETEC isolates (ST, LT, CS2/CS3, CS6); format: cell-based, Escherichia coli; on Expression of virulence factor CS2/CS3 in ETEC isolates: key: + = present; − = not present; NV, not viable; on Expression of virulence factor CS6 in ETEC isolates: key: + = present; − = not present; NV, not viable; on Expression of virulence factor LT in ETEC isolates: key: + = present; − = not present; NV, not viable; on Expression of virulence factor ST in ETEC isolates: key: + = present; − = not present; NV, not viable
[12] = rifaximin 8 mg/L, exposure 4 hrs
[13] = rifaximin 8 mg/L, exposure 8 hrs
[14] = rifaximin 8 mg/L, exposure 18 hrs
[15] = rifaximin 8 mg/L, exposure 24 hrs
[16] = rifaximin 32 mg/L, exposure 4 hrs
[17] = rifaximin 32 mg/L, exposure 8 hrs
[18] = rifaximin 32 mg/L, exposure 18 hrs
[19] = rifaximin 64 mg/L, exposure 4 hrs
[20] = rifaximin 64 mg/L, exposure 8 hrs

Compound: CO[C@H]1/C=C/O[C@@]2(C)Oc3c(C)c(O)c4c(O)c(c5c(nc6cc(C)ccn65)c4c3C2=O)NC(=O)/C(C)=C\C=C\[C@H](C)[C@H](O)[C@@H](C)[C@@H](O)[C@@H](C)[C@H](OC(C)=O)[C@@H]1C [Rifaximin, (2S,16Z,18E,20S,21S,22R,23R,24R,25S,26S,27S,28E)-5,6,21,23,25 Pentahydroxy-27-methoxy-2,4,11,16,20,22,24,26-octamethyl-2,7-(epoxypentadeca-(1,11,13)trienimino)benzofuro (4,5-e) pyrido(1,2,-a) benzimidazole-1,15(2H)-dione,25-acetate]
- MMP-9 expression by EAEC isolates ([1]; rifaximin 8 mg/L for 4 and 8 hours): expressed MMP-9
- MMP-9 expression by EAEC isolates ([1]; rifaximin 8 mg/L for 24 hours): undetectable
- MMP-9 expression by EAEC isolates ([1]; rifaximin 8 mg/L, 18-hour time point): one EAEC isolate produced MMP-9, but the other isolate did not
- MMP-9 expression by EAEC isolates ([1]; rifaximin 32 or 64 mg/L for 4, 8, or 18 hours): undetectable
- EAEC O42 adherence to HEp-2 cells (microscopy) [2]: greatly reduced
- EAEC adherence to HEp-2 cells (CFU, % of total bacteria added) [3]: significantly lower; also recorded: significantly reduced; also recorded: reduced EAEC adherence
- EAEC bacterial counts in the supernatants ([3]; HEp-2 cells pretreated 24 h, EAEC 3 h): No differences in bacterial counts
- EAEC adherence to HeLa cells [4]: significantly reduced
- IL-8 production from HCT-8 cells infected with rifaximin-exposed EAEC ([5]; EAEC exposed to rifaximin 64 mg/L for 4 hours): caused IL-8 production
- IL-8 production from HCT-8 cells infected with rifaximin-exposed EAEC ([5]; EAEC exposed to rifaximin 8 or 32 mg/L for 4 or 8 hours): elicited production of IL-8
- IL-8 production from HCT-8 cells infected with rifaximin-exposed EAEC ([5]; all other time points and rifaximin concentrations): Interleukin-8 was either undetected following HCT-8 infection with EAEC strains, or EAEC strains were not viable
- IL-8 production from HCT-8 cells infected with rifaximin-exposed EAEC ([5]; viable EAEC exposed to rifaximin 8, 32, or 64 mg/L for 18 hours or 8 mg/L for 24 hours): did not elicit IL-8 production
- MIC50 against C difficile ([6]; 359 isolates): <0.01 µg/mL
- MIC90 against C difficile ([6]; 359 isolates): 0.25 µg/mL (≈ 0.318 µM)
- MIC50 against C difficile ([6]; 359 isolates, listed as rifaximin): < 0.01 µg/mL
- Isolates resistant to rifaximin alone (n = 11), (%) ([6]; genotype A +, B +, BT +, tcdC-del +): (0) %
- Isolates resistant to rifaximin alone (n = 11), (%) ([6]; genotype A +, B +, BT +, tcdC-del −): (18) %
- Isolates resistant to rifaximin alone (n = 11), (%) ([6]; genotype A +, B +, BT −, tcdC-del +): (9) %
- Isolates resistant to rifaximin alone (n = 11), (%) ([6]; genotype A +, B +, BT −, tcdC-del −): (55) %
- Isolates resistant to rifaximin alone (n = 11), (%) ([6]; genotype A −, B −, BT −, tcdC-del −): (18) %
- EAEC viability after exposure ([7]; rifaximin 8 mg/L for 24 hours): viable
- EAEC viability after exposure ([7]; rifaximin 8, 32, and 64 mg/L at 4, 8, and 18 hours): viable
- EAEC viability after exposure ([7]; rifaximin 32 and 64 mg/L for 24 hours): no viable isolates were recovered
- S sonnei viability after exposure ([8]; rifaximin 8 mg/L for 4, 8, 18, and 24 hours): viable
- S sonnei viability after exposure ([8]; rifaximin 32 or 64 mg/L at any time point): not viable
- S. sonnei attachment [9]: no effect
- S. sonnei internalization ([9]; gentamicin protection): no effect
- EAEC adherence to HCT-8 cells [10]: Slightly fewer bacteria adhered to rifaximin-pretreated HCT-8 cells, but this difference was not significant
- Expression of all examined virulence factors (ST, LT, CS2/CS3, CS6) by viable ETEC isolates ([11]; 4- and 8-hour exposure to rifaximin 8, 32, and 64 mg/L): expressed all examined virulence factors
- Expression of all examined virulence factors (ST, LT, CS2/CS3, CS6) by viable ETEC isolates ([11]; 18-hour time point, rifaximin 8 mg/L): all virulence factors were expressed
- Expression of all examined virulence factors (ST, LT, CS2/CS3, CS6) by viable ETEC isolates ([11]; 18-hour time point, rifaximin 32 mg/L): no factors were seen
- Expression of all examined virulence factors (ST, LT, CS2/CS3, CS6) by viable ETEC isolates ([11]; 24-hour exposure to rifaximin 8 mg/L): did not express any virulence factors
- Expression of virulence factor CS2/CS3 in ETEC isolates [11, 12]: +
- Expression of virulence factor CS6 in ETEC isolates [11, 12]: +
- Expression of virulence factor LT in ETEC isolates [11, 12]: +
- Expression of virulence factor ST in ETEC isolates [11, 12]: +
- Expression of virulence factor ST/LT in ETEC isolates [11, 12]: +
- Expression of virulence factor CS2/CS3 in ETEC isolates [11, 13]: +
- Expression of virulence factor CS6 in ETEC isolates [11, 13]: +
- Expression of virulence factor LT in ETEC isolates [11, 13]: +
- Expression of virulence factor ST in ETEC isolates [11, 13]: +
- Expression of virulence factor ST/LT in ETEC isolates [11, 13]: +
- Expression of virulence factor CS2/CS3 in ETEC isolates [11, 14]: +
- Expression of virulence factor CS6 in ETEC isolates [11, 14]: +
- Expression of virulence factor LT in ETEC isolates [11, 14]: +
- Expression of virulence factor ST in ETEC isolates [11, 14]: +
- Expression of virulence factor ST/LT in ETEC isolates [11, 14]: +
- Expression of virulence factor CS2/CS3 in ETEC isolates [11, 15]: −
- Expression of virulence factor CS6 in ETEC isolates [11, 15]: −
- Expression of virulence factor LT in ETEC isolates [11, 15]: −
- Expression of virulence factor ST in ETEC isolates [11, 15]: −
- Expression of virulence factor ST/LT in ETEC isolates [11, 15]: −
- Expression of virulence factor CS2/CS3 in ETEC isolates [11, 16]: +
- Expression of virulence factor CS6 in ETEC isolates [11, 16]: +
- Expression of virulence factor LT in ETEC isolates [11, 16]: +
- Expression of virulence factor ST in ETEC isolates [11, 16]: +
- Expression of virulence factor ST/LT in ETEC isolates [11, 16]: +
- Expression of virulence factor CS2/CS3 in ETEC isolates [11, 17]: +
- Expression of virulence factor CS6 in ETEC isolates [11, 17]: +
- Expression of virulence factor LT in ETEC isolates [11, 17]: +
- Expression of virulence factor ST in ETEC isolates [11, 17]: +
- Expression of virulence factor ST/LT in ETEC isolates [11, 17]: +
- Expression of virulence factor CS2/CS3 in ETEC isolates [11, 18]: −
- Expression of virulence factor CS6 in ETEC isolates [11, 18]: −
- Expression of virulence factor LT in ETEC isolates [11, 18]: −
- Expression of virulence factor ST in ETEC isolates [11, 18]: −
- Expression of virulence factor ST/LT in ETEC isolates [11, 18]: −
- Expression of virulence factor CS2/CS3 in ETEC isolates [11, 19]: +
- Expression of virulence factor CS6 in ETEC isolates [11, 19]: +
- Expression of virulence factor LT in ETEC isolates [11, 19]: +
- Expression of virulence factor ST in ETEC isolates [11, 19]: +
- Expression of virulence factor ST/LT in ETEC isolates [11, 19]: +
- Expression of virulence factor CS2/CS3 in ETEC isolates [11, 20]: +
- Expression of virulence factor CS6 in ETEC isolates [11, 20]: +
- Expression of virulence factor LT in ETEC isolates [11, 20]: +
- Expression of virulence factor ST in ETEC isolates [11, 20]: +
- Expression of virulence factor ST/LT in ETEC isolates [11, 20]: +
